# Patent US20230257390A1, “COMPOUNDS WHICH INHIBIT RNA POLYMERASE AND THEIR USE” (The Johns Hopkins University, priority 2020, published 2023)
# Where a name gives a salt, the structure may show the parent alone.
# Test system: RPA194
# Experiment: RPA194 immunofluorescence high-content imaging in A375 cells (Pol I inhibition)
# Format: cell-based
# Conditions: treated for 4 hours, top concentration 10 μM
# Method: Cell culture: A375 cells (CRL-1619, ATCC) were grown in DMEM (GIBCO) supplemented with 10% fetal bovine serum (GIBCO) in 5% CO2 at 37° C.
# Cell treatment and Imaging: 18 hours post-seeding in cell carrier black 384-well plates (PerkinElmer) at 15 000 cells/well, A375 cells were treated for 4 hours with a positive control or test compounds (9 serial semi-log dilutions, top concentration 10 μM). Upon treatment A375 cells were (i) fixed for 15 min at RT with 4% of paraformaldehyde, (ii) permeabilized for 20 min at RT with 0.1-0.5% of NP-40, (iii) incubated with primary antibodies at 4° C.: anti-RPA194 (1:1000-1:1250 dilution, sc-48385, Santa Cruz Biotechnology) and anti-gH2Ax (1:5000 dilution, 81299, Abcam or 1:4000, JBW302, Millipore) (iv) incubated for 1 h at RT with Hoechst (1:5000 dilution, H3570, ThermoFisher) and secondary antibodies: anti-mouse-AlexaFluor488 (1:2000 dilution, A11001, ThermoFisher) and anti-rabbit-AlexaFluor647 (1:2000 dilution, A21443, ThermoFisher) or goat anti-mouse AlexaFluor-594 (1:1000 dilution). Images were acquired on an Operetta CLS High-Content Analysis System (PerkinElmer) (40× objective; 9 fields/well) and processed using the Columbus Image Analysis System (PerkinElmer) or by using Molecular Devices ImageXpress Micro XLS High Content Imager and MetaXpress high-content acquisition and analysis software.
# In the table below, (+) is associated with a pIC50 5.02 to 5.8; (++) with pIC50 5.8 to 6.3; and plus sing (+++) with a pIC50 above 6.3.
row,SMILES,Activity Range (pIC50)
1,"O=C(NCCN1C[C@@H](O)[C@H](O)C1)c1cccn2c(=O)c3cc4c(cc3nc12)OC(F)(F)O4 [Compound 101, N-(2-((3R,4R)-3,4-dihydroxypyrrolidin-1-yl)ethyl)-2,2-difluoro-11-oxo-11H-[1,3]dioxolo[4,5-g]pyrido[2,1-b]quinazoline-6-carboxamide]",+ ((+) is associated with a pIC50 5.02 to 5.8)
2,"O=C(NCCN1CCC(O)C1)c1cccn2c(=O)c3cc4c(cc3nc12)OC(F)(F)O4 (centres unmarked) [Compound 102, 2,2-difluoro-N-(2-(3-hydroxypyrrolidin-1-yl)ethyl)-11-oxo-11H-[1,3]dioxolo[4,5-g]pyrido[2,1-b]quinazoline-6-carboxamide; hydrochloride]",+ ((+) is associated with a pIC50 5.02 to 5.8)
3,"O=C1CCN(CCNC(=O)c2cccn3c(=O)c4cc5c(cc4nc23)OC(F)(F)O5)CC1 [Compound 103, 2,2-difluoro-11-oxo-N-(2-(4-oxopiperidin-1-yl)ethyl)-11H-[1,3]dioxolo[4,5-g]pyrido[2,1-b]quinazoline-6-carboxamide]",++ ((++) with pIC50 5.8 to 6.3)
4,"CN(C)CCNC(=O)c1cccn2c(=O)c3cc4c(cc3nc12)OC(F)(F)O4 [Compound 104, N-(2-(dimethylamino)ethyl)-2,2-difluoro-11-oxo-11H-[1,3]dioxolo[4,5-g]pyrido[2,1-b]quinazoline-6-carboxamide; hydrochloride]",+ ((+) is associated with a pIC50 5.02 to 5.8)
5,"O=C(NCCN1CCC(O)CC1)c1cccn2c(=O)c3cc4c(cc3nc12)OC(F)(F)O4 [Compound 105, 2,2-difluoro-N-(2-(4-hydroxypiperidin-1-yl)ethyl)-11-oxo-11H-[1,3]dioxolo[4,5-g]pyrido[2,1-b]quinazoline-6-carboxamide; hydrochloride]",++ ((++) with pIC50 5.8 to 6.3)
6,"CN(C)C(C)(C)CNC(=O)c1cccn2c(=O)c3cc4c(cc3nc12)OC(F)(F)O4 [Compound 106, N-(2-(dimethylamino)-2-methylpropyl)-2,2-difluoro-11-oxo-11H-[1,3]dioxolo[4,5-g]pyrido[2,1-b]quinazoline-6-carboxamide; hydrochloride]",+ ((+) is associated with a pIC50 5.02 to 5.8)
7,"O=C(NCCN1CCCC1)c1cccn2c(=O)c3cc4c(cc3nc12)OC(F)(F)O4 [Compound 107, 2,2-difluoro-11-oxo-N-(2-(pyrrolidin-1-yl)ethyl)-11H-[1,3]dioxolo[4,5-2]pyrido[2,1-b]quinazoline-6-carboxamide; hydrochloride]",+++ ((+++) with a pIC50 above 6.3)
8,"O=C(NCCN1CCCC1)c1cccn2c(=O)c3cc4c(cc3nc12)OCO4 [Compound 108, 11-oxo-N-(2-(pyrrolidin-1-yl)ethyl)-11H-[1,3]dioxolo[4,5-g]pyrido[2,1-b]quinazoline-6-carboxamide; hydrochloride]",++ ((++) with pIC50 5.8 to 6.3)
9,"Cc1cc2nc3c(C(=O)NCCN(C)C)cccn3c(=O)c2cc1C [Compound 109, N-(2-(dimethylamino)ethyl)-2,3-dimethyl-11-oxo-11H-pyrido[2,1-b]quinazoline-6-carboxamide; hydrochloride]",++ ((++) with pIC50 5.8 to 6.3)
10,"Cc1cc2nc3c(C(=O)NCCN4CCCC4)cccn3c(=O)c2cc1C [Compound 110, 2,3-dimethyl-11-oxo-N-(2-(pyrrolidin-1-yl)ethyl)-11H-pyrido[2,1-b]quinazoline-6-carboxamide; hydrochloride]",++ ((++) with pIC50 5.8 to 6.3)
11,"CN(C)CCNC(=O)c1cccn2c(=O)c3cc4c(cc3nc12)CCCC4 [Compound 111, N-(2-(dimethylamino)ethyl)-12-oxo-7,9,10,12-tetrahydro-8H-benzo[g]pyrido[2,1-b]quinazoline-4-carboxamide; hydrochloride]",+ ((+) is associated with a pIC50 5.02 to 5.8)
12,"O=C(NCCN1CCCC1)c1cccn2c(=O)c3cc4c(cc3nc12)CCCC4 [Compound 112, 12-oxo-N-(2-(pyrrolidin-1-yl)ethyl)-7,9,10,12-tetrahydro-8H-benzo[g]pyrido[2,1-b]quinazoline-4-carboxamide; hydrochloride]",++ ((++) with pIC50 5.8 to 6.3)
13,"O=C(NCCN1CCCC1)c1cccn2c(=O)c3cc4c(cc3nc12)OCCO4 [Compound 113, 12-oxo-N-(2-(pyrrolidin-1-yl)ethyl)-2,3-dihydro-12H-[1,4]dioxino[2,3-2]pyrido[2,1-b]quinazoline-7-carboxamide; hydrochloride]",+ ((+) is associated with a pIC50 5.02 to 5.8)
14,"CN(C)CCNC(=O)c1cccn2c(=O)c3cc4c(cc3nc12)OCCO4 [Compound 114, N-(2-(dimethylamino)ethyl)-12-oxo-2,3-dihydro-12H-[1,4]dioxino[2,3-g]pyrido[2,1-b]quinazoline-7-carboxamide; hydrochloride]",+ ((+) is associated with a pIC50 5.02 to 5.8)
15,"Cc1ccc2c(=O)n3cccc(C(=O)NCCN4CC[C@@H](O)C4)c3nc2c1C [Compound 115, (R)-N-(2-(3-hydroxypyrrolidin-1-yl)ethyl)-3,4-dimethyl-11-oxo-11H-pyrido[2,1-b]quinazoline-6-carboxamide; hydrochloride]",+++ ((+++) with a pIC50 above 6.3)
16,"Cc1ccc2c(=O)n3cccc(C(=O)NCCN4CCCC4)c3nc2c1 [Compound 116, 3-methyl-11-oxo-N-(2-(pyrrolidin-1-yl)ethyl)-11H-pyrido[2,1-b]quinazoline-6-carboxamide;hydrochloride]",+ ((+) is associated with a pIC50 5.02 to 5.8)
17,"Cc1cccc2c(=O)n3cccc(C(=O)NCCN4CCCC4)c3nc12 [Compound 117, 4-methyl-11-oxo-N-(2-(Pyrrolidin-1-Yl)ethyl)-11H-pyrido[2,1-b]quinazoline-6-carboxamide;hydrochloride]",++ ((++) with pIC50 5.8 to 6.3)
18,"O=C(NCCN1CCCC1)c1cccn2c(=O)c3cccc(-c4ccccc4)c3nc12 [Compound 118, 11-oxo-4-phenyl-N-(2-(pyrrolidin-1-yl)ethyl)-11H-pyrido[2,1-b]quinazoline-6-carboxamide; hydrochloride]",+ ((+) is associated with a pIC50 5.02 to 5.8)
19,"O=C(NCCN1CCCC1)c1cccn2c(=O)c3ccc(-c4ccccc4)cc3nc12 [Compound 119, 11-oxo-3-phenyl-N-(2-(pyrrolidin-1-yl)ethyl)-11H-pyrido[2,1-b]quinazoline-6-carboxamide; hydrochloride]",+ ((+) is associated with a pIC50 5.02 to 5.8)
20,"Cc1ccc2c(=O)n3cccc(C(=O)NCCN4CCCC4)c3nc2c1C [Compound 120, 3,4-dimethyl-11-oxo-N-(2-(pyrrolidin-1-yl)ethyl)-11H-pyrido[2,1-b]quinazoline-6-carboxamide; hydrochloride]",+++ ((+++) with a pIC50 above 6.3)
21,"O=C(NCCN1CCCC1)c1cccn2c(=O)c3ccc4c(c3nc12)OC(F)(F)O4 [Compound 121, 2,2-difluoro-6-oxo-N-(2-(pyrrolidin-1-yl)ethyl)-6H-[1,3]dioxolo[4,5-h]pyrido[2,1-b]quinazoline-11-carboxamide;hydrochloride]",+ ((+) is associated with a pIC50 5.02 to 5.8)

# Test system: tumor burden
# Experiment: not given
# Conditions: mouse xenograft assays; cited from earlier work
row,SMILES,tumor burden
1,"CN(C)CCNC(=O)c1cccn2c(=O)c3cc4ccccc4cc3nc12 [BMH-21, 12H-Benzo[g]pyrido[2,1-b]quinazoline-4-carboxamide, N-[2(dimethylamino)ethyl]-12-oxo]",reduced tumor burden

# Test system: NCI60 cancer cell lines
# Experiment: not given
# Conditions: cited from earlier work
row,SMILES,anticancer activity
1,"CN(C)CCNC(=O)c1cccn2c(=O)c3cc4ccccc4cc3nc12 [BMH-21, 12H-Benzo[g]pyrido[2,1-b]quinazoline-4-carboxamide, N-[2(dimethylamino)ethyl]-12-oxo]",anticancer activity
